According to patent publication US20050049294A1, “Methods of using [3.2.0] heterocyclic compounds and analogs thereof” (priority 2003, published 2005):
Several values for one entry are separate records, joined by “and”; a condition that tells them apart may be missing. Identical values can stand only once. Like-named read-outs stand apart in the source and are kept apart here.

Experiments:
OVCAR-3 cells = experiment: Cell growth inhibition (resazurin, 48 hours), OVCAR-3; type: cell-based, human
RPMI 8226 cells = experiment: Cell growth inhibition (resazurin, 48 hours), RPMI 8226
HL-60/MX2 cells = experiment: cells; details: for Fold change: ratio of EC50 values (HL-60/MX2:HL-60)
From the text: (§1) The DNA binding agent Mitoxantrone was included as a control, as HL-60/MX2 cells are reported to be resistant to this chemotherapeutic agent (Harker W. G. et al. 1989).

HT-29 cells = experiment: Cell growth inhibition (resazurin, 48 hours), HT-29; type: cell-based; details: Homo sapiens
[1] = system: LeTx-induced cytotoxicity of RAW264.7 cells; experiment: cells; details: Mus musculus
MDA-MB-231 cells = experiment: Cell growth inhibition (resazurin, 48 hours), MDA-MB-231; type: cell-based; details: Homo sapiens
[2] = target: T1, chymotrypsin-like activity of rabbit muscle 20S proteasomes (Oryctolagus cuniculus, UniProt G1T4Q9); experiment: Inhibition of chymotrypsin-like activity of purified rabbit muscle 20S proteasome (suc-LLVY-AMC); type: biochemical
T1 sequence (G1T4Q9 1-263): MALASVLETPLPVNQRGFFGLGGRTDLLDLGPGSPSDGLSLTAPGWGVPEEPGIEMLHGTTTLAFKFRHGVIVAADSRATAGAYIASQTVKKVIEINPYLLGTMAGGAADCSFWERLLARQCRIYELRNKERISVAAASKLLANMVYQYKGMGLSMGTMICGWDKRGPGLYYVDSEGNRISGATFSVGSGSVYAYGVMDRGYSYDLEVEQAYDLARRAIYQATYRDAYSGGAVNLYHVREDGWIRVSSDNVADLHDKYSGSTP
Procedure: This peptide substrate is specific for the chymotrypsin-like enzyme activity of the proteasome.
Omuralide was prepared as a 10 mM stock in DMSO and stored in 5 μL aliquots at −80° C. […] The assay measures the hydrolysis of Suc-LLVY-AMC into Suc-LLVY and AMC. The released coumarin (AMC) was measured fluorometrically by using λex=390 nm and λem=460 nm. The assays were performed in a microtiter plate (Corning 3904), and followed kinetically with measurements every five minutes. The instrument used was a Thermo Lab Systems Fluoroskan, with the incubation chamber set to 37° C. The assays were performed according to the manufacturer's protocol, with the following changes. The proteasome was activated as described with SDS, and held on ice prior to the assay. […] Ten microliters of each dose were added in triplicate to the assay plate, and 190 μL of the activated proteasome was added and mixed. The samples were pre-incubated in the Fluoroskan for 5 minutes at 37° C. Substrate was added and the kinetics of AMC were followed for one hour.

[3] = system: NF-κB-mediated luciferase activity in HEK293 NF-κB/Luc cells; experiment: NF-κB-mediated luciferase reporter gene assay; type: cell-based, human; details: for EC50: Homo sapiens; for luciferase activity upon TNF-α stimulation: pretreatment of NF-κB/Luc 293 cells
Procedure: (§2) The HEK293 NF-κB/luciferase reporter cell line is a derivative of the human embryonic kidney cell line (ATCC; CRL- 1573) and carries a luciferase reporter gene under the regulation of 5×NF-κB binding sites. […] When performing the luciferase assay, the DMEM basal medium was replaced with phenol-red free DMEM basal medium and the G418 was omitted.
For NF-κB-mediated luciferase assays, HEK293 NF-κB/luciferase cells were seeded at 1.5×10^4 cells/well in 90 μl phenol-red free DMEM complete medium into Corning 3917 white opaque-bottom tissue culture plates. […] This dilution series was further diluted 40× in appropriate culture medium and ten μl aliquots were added to the test wells in triplicate resulting in final test concentrations ranging from 1 μM to 320 pM. […] For Formula II-19, a 127 μM starting dilution was made in 100% DMSO and the final test concentrations ranging from 317 nM to 0.1 nM. […] After 1 hr pretreatment, 10 μl of a 50 ng/ml TNF-α solution, prepared in the phenol-red free DMEM medium was added, and the plates were incubated for an additional 6 hr.
NF-κB inducible luciferase activity was measured at 6 hours.
as §2, with “CRL-1573)” for “CRL- 1573)”
For NF-κB-mediated luciferase assays, HEK293 NF-κB/luciferase cells were seeded at 1.5×10^4 cells/well in 90 μl phenol-red free DMEM complete medium into Corning 3917 white opaque-bottom tissue culture plates. For Formula II-2, Formula II-4 and Formula II-5A, a 400 μM starting dilution was made in 100% DMSO and this dilution was used to generate a 8-point half log dilution series. This dilution series was further diluted 40× in appropriate culture medium and ten μl aliquots were added to the test wells in triplicate resulting in final test concentrations ranging from 1 μM to 320 pM. […] After 1 hr pretreatment, 10 μl of a 50 ng/ml TNF-α solution, prepared in the phenol-red free DMEM medium was added, and the plates were incubated for an additional 6 hr.
The relative luciferase units (RLU) were measured by using a Fusion microplate fluorometer (Packard Bioscience).

HL-60 cells = experiment: Cell growth inhibition (resazurin, 48 hours), HL-60
From the text: as §1

[4] = target: T2, trypsin-like activity of purified rabbit 20S proteasomes (Oryctolagus cuniculus, UniProt G1SWK8); details: under the conditions tested
T2 sequence (G1SWK8 1-271): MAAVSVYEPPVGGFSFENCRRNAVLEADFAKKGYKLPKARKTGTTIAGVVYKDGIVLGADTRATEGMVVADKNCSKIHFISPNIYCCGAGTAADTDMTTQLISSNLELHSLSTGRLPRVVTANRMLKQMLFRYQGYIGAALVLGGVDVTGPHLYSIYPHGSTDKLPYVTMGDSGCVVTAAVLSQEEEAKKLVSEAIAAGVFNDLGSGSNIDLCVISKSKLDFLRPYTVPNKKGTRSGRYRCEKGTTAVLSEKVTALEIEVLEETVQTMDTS

NCI-H292 cells = experiment: Cell growth inhibition (resazurin, 48 hours), NCI-H292; type: cell-based, human
[5] = Homo sapiens, OVCAR-3, Table 13, OVCAR-3
[6] = Homo sapiens, RPMI-8226, Table 13, RPMI 8226
[7] = Homo sapiens, RPMI-8226, read-out: RPMI 8226 EC50 (nM), Table 15, mean EC50
[8] = Homo sapiens, HL60/MX2, read-out: EC50 (nM) HL-60/MX2, Table 17
[9] = read-out: EC50 (nM) HL-60/MX2, Table 17
[10] = RAW264.7, read-out: EC50 (nM), inhibition of RAW 264.7 cell cytotoxicity mediated by anthrax lethal toxin
[11] = Table 3, mean EC50, purified rabbit 20S proteasomes, read-out: EC50 Values, Chymotrypsin-like
[12] = Homo sapiens, HL-60, read-out: EC50 (nM) HL-60, Table 17
[13] = Homo sapiens, NCI-H292, Table 13, NCI-H292
[14] = read-out: EC50 (nM) HL-60, Table 17

In the case of `C[C@@]12OC(=O)[C@]1([C@@H](O)[C@@H]1C=CCCC1)NC(=O)[C@@H]2CCCl` [Formula II-16, Salinosporamide A], the EC50 (OVCAR-3 cells; Homo sapiens, OVCAR-3, 48 h) is reported as 69 nM, the EC50 (OVCAR-3 cells; Homo sapiens, OVCAR-3, 48 h, read-out: EC50 (nM), mean ± SD) is reported as 49 ± 31 nM and the EC50 (RPMI 8226 cells; Homo sapiens, RPMI-8226, 48 h, read-out: EC50 (nM), mean ± SD) is reported as 8.6 ± 1.9 nM. The EC50 (RPMI 8226 cells; Homo sapiens, RPMI-8226, read-out: EC50 (nM), mean ± SD) was 10 ± 3 nM, the “% cytotoxicity, mean ± SD” value (RPMI 8226 cells; Table 6, RPMI 8226 (n = 5)) was 94 ± 1% and the “% cytotoxicity, mean ± SD” value (RPMI 8226 cells; Table 9, RPMI 8226, 48 hour) was 94 ± 0%. For the same compound, the EC50 (HL-60/MX2 cells; Homo sapiens, HL60/MX2, Table 8, HL-60/MX2) was 28 nM, the “% cytotoxicity” value (HL-60/MX2 cells; Table 8, HL-60/MX2) was 84% and 89% and the EC50 (HL-60/MX2 cells; Table 8, HL-60/MX2) was 25 nM. The EC50 (HT-29 cells; HT-29, 48 h) was 47 nM, the EC50 (HT-29 cells; HT-29, 48 h, read-out: EC50 (nM), mean ± SD) was 40 ± 26 nM and the EC50 ([1]; RAW264.7, read-out: average EC50, viability of LeTx-treated cells) was < 4 nM. For the same compound, the EC50 (MDA-MB-231 cells; MDA-MB-231, 48 h) was 67 nM, the EC50 (MDA-MB-231 cells; MDA-MB-231, 48 h, read-out: EC50 (nM), mean ± SD) was 87 ± 40 nM and the “more potent than Omuralide” value ([2]; 20S proteasome assay EC50 values) was “approximately 40 fold”. For the same compound, the EC50 ([3]; HEK293, 6 h, read-out: calculated EC50 for inhibition of NF-κB/luciferase activity) was ~7 nM, the “luciferase activity upon TNF-α stimulation” value [3] was “dose-dependent decrease” and the EC50 (HL-60 cells; Homo sapiens, HL-60, Table 8, HL-60) was 27 nM. For the same compound, the “% cytotoxicity” value (HL-60 cells; Table 8, HL-60) was 88% and 91%, the EC50 (HL-60 cells; Table 8, HL-60) was 30 nM and the “inhibit the trypsin-like activity of the 20S proteasome” value (shortened to “inhibit the trypsin-like activity”) [4] was “able to inhibit”. The EC50 (NCI-H292 cells; Homo sapiens, NCI-H292, 48 h) was 97 nM and the EC50 (NCI-H292 cells; Homo sapiens, NCI-H292, 48 h, read-out: EC50 (nM), mean ± SD) was 66 ± 29 nM.

For `C[C@@]12OC(=O)[C@]1([C@@H](O)C1CCCCC1)NC(=O)[C@@H]2CCBr` [Formula II-4], the EC50 (OVCAR-3 cells; [5]) was > 6320 nM, the EC50 (RPMI 8226 cells; [6]) was 57 nM and the EC50 (RPMI 8226 cells; [7]) was 54 nM. For the same compound, the EC50 (HL-60/MX2 cells; [8]) was 103 nM, the Fold change (HL-60/MX2 cells; Table 17) was 0.8 fold and the EC50 (HL-60/MX2 cells; [9]) was 97 nM. It also gave an EC50 (HT-29 cells; Table 13, HT-29, read-out: EC50) of 132 ± 36 nM, an EC50 [1, 10] of 14 nM and an EC50 (MDA-MB-231 cells; MDA-MB-231) of 114 ± 4 nM. It also gave an EC50 [2, 11] of 14.2 nM, an EC50 ([2]; representative experiment, Example 44 (FIG. 46, 47), read-out: EC50, chymotrypsin-like activity of the proteasome) of 15 nM and an EC50 ([3]; HEK293, read-out: calculated EC50 to inhibit NF-κB inducible luciferase activity) of 67 nM. For the same compound, the “luciferase activity upon TNF-α stimulation” value [3] was “dose-dependent decrease”, the EC50 (HL-60 cells; [12]) was 111 nM and the “inhibit the trypsin-like activity” value [4] was “able to inhibit”. The EC50 (NCI-H292 cells; [13]) was 192 nM.

`C[C@@]12OC(=O)[C@]1([C@@H](O)C1CCCCC1)NC(=O)[C@@H]2CCCl` [Formula II-2] gave an EC50 (OVCAR-3 cells; [5]) of 188 nM, an EC50 (OVCAR-3 cells; Table 13, OVCAR-3) of 251 nM and an EC50 (RPMI 8226 cells; [6]) of 49 nM. For the same compound, the EC50 (RPMI 8226 cells; [7]) was 47 nM, the EC50 (RPMI 8226 cells; Table 13, RPMI 8226) was 45 nM and the EC50 (HL-60/MX2 cells; [8]) was 142 nM. It also gave a Fold change (HL-60/MX2 cells; Table 17) of 0.7 fold, an EC50 (HL-60/MX2 cells; [9]) of 133 nM and an EC50 (HT-29 cells; HT-29) of 129 ± 21 nM. It also gave an EC50 [1, 10] of 14 nM, an EC50 (MDA-MB-231 cells; MDA-MB-231) of 121 ± 23 nM and an EC50 ([2]; EC50, chymotrypsin-like activity of the proteasome) of 18.5 nM. For the same compound, the EC50 ([2]; EC50 Values, Chymotrypsin-like) was 18 nM, the EC50 ([3]; HEK293, representative experiment, Example 43 (FIG. 44, 45), read-out: calculated EC50 to inhibit NF-κB inducible luciferase activity) was 73 nM and the “luciferase activity upon TNF-α stimulation” value [3] was “dose-dependent decrease”. For the same compound, the EC50 (HL-60 cells; [12]) was 237 nM, the EC50 (HL-60 cells; [14]) was 176 nM and the “inhibit the trypsin-like activity” value [4] was “able to inhibit”. It also gave an EC50 (NCI-H292 cells; [13]) of 322 nM.

For `C[C@@]12OC(=O)[C@]1([C@@H](O)[C@@H]1C=CCCC1)NC(=O)[C@@H]2CCBr` [Formula II-18], the EC50 (OVCAR-3 cells; [5]) was > 2000 nM, the EC50 (RPMI 8226 cells; Homo sapiens, RPMI-8226, 48 h, read-out: EC50, μM (mean ± SD), Table 9, RPMI 8226, 48 hour) was 17 nM and the EC50 (RPMI 8226 cells; [6]) was 6.3 nM. The EC50 (RPMI 8226 cells; [7]) was 6.3 nM, the “% cytotoxicity, mean ± SD” value (RPMI 8226 cells; Table 9, RPMI 8226, 48 hour) was 94, 94% and the EC50 (RPMI 8226 cells; read-out: EC50, μM (mean ± SD), Table 9, RPMI 8226, 48 hour) was 22 nM. The EC50 (HL-60/MX2 cells; [8]) was 19 nM, the Fold change (HL-60/MX2 cells; Table 17) was 0.7 fold and the EC50 (HL-60/MX2 cells; [9]) was 18 nM. It also gave an EC50 (HT-29 cells; HT-29) of 18 ± 7.8 nM, an EC50 [1, 10] of 4 nM and an EC50 (MDA-MB-231 cells; MDA-MB-231) of 16 ± 2.8 nM. For the same compound, the EC50 [2, 11] was 2.2 nM, the “luciferase activity upon TNF-α stimulation” value [3] was “dose-dependent decrease” and the EC50 (HL-60 cells; [12]) was 27 nM. For the same compound, the EC50 (HL-60 cells; [14]) was 23 nM, the “inhibit the trypsin-like activity” value [4] was “able to inhibit” and the EC50 (NCI-H292 cells; [13]) was 29 nM. It also gave an EC50 (NCI-H292 cells; Table 13, NCI-H292) of 41 nM.
